In patent US20210030703A1, “USE OF CALORIC RESTRICTION MIMETICS FOR POTENTIATING CHEMO-IMMUNOTHERAPY FOR THE TREATMENT OF CANCERS” (INSERM (INSTITUT NATIONAL DE LA SANTÉ ET DE LA RECHERCHE …, priority 2018, published 2021):

Experiments:
PD-L2 = PD-L2 expression in tumor cells; type: in vivo, C57B1/6 mice; conditions: data not shown
Description: (§1) 3 or 11 days post-chemotherapy (d3 or d11), mice were euthanized and the tumors were withdrawn and placed in gentleMACS C tubes (ref 130-096-334 from Miltenyi Biotec™) previously filled with 1 ml of DMEM or RPMI medium, and immediately put on ice. After a mechanical (with scissors) and chemical digestion (thanks to the tumor dissociation kit and the gentleMACS Octo Dissociator, ref 130-096-730 and 130-096-427, respectively, from Miltenyi Biotec™), tumors were filtered (using MACS smartstrainers […], ref 130-110-916 from Miltenyi Biotec™), washed twice with PBS and distributed in a 96-wells round bottom plate.
(§2) Then, cells were stained with a live dead dye (ref L34959 from ThermoFisher Scientific™) and an FCblock receptor targeting antibody. […] Finally, cells were resuspended in FACS buffer and analyzed on a flow cytometer BD LSR II.

PD-L1 = PD-L1 expression on CD45+/- tumor infiltrating cells; type: in vivo, C57B1/6 mice
Text: WT 9 weeks old C57B1/6 mice were subcutaneously injected with MCA205 WT fibrosarcoma cells. When tumors became palpable, mice underwent two days of fasting (d-2 to d0). HC treatment in drinking water began the day after (d-1), followed by chemotherapy with MTX (d0). 11 days post-chemotherapy, mice were sacrified and tumors were collected, dissociated, filtrated and stained with panel 3 antibodies. The results are represented as percentage among viable cells. […] The data shown represent a pool of two independent experiments sharing all the groups. Statistical analysis were realized using ordinary one-way ANOVA. ****p<0.001, ***p<0.005, **p<0.01, *p<0.05.
as §1, §2

O=C(O)CC(O)(C(=O)O)C(O)C(=O)O (stereo not drawn) [HC, hydroxycitrate]
Effect of co-treatment on MTX-induced PD-L2 increase in CD45- cells (PD-L2): not affected | Effect of co-treatment on MTX-induced PD-L1 upregulation (PD-L1; FIG. 8A-D): not altered

O=C1c2c(O)ccc(O)c2C(=O)c2c(NCCNCCO)ccc(NCCNCCO)c21 [MTX, mitoxantrone]
PD-L2 expression in CD45- cells (PD-L2; MTX): increase | PD-L1 on non-leukocytes from the cancer (CD45- cells, mostly malignant cells) (PD-L1; MCA205 tumor-bearing mice treated with MTX (FIG. 8A, B)): upregulation | PD-L1 in leukocytes expressing CD11b (PD-L1; MCA205 tumor-bearing mice treated with MTX (FIG. 8C, D)): upregulation | Percentage of CD45- PD-L1+ cells (PD-L1; MTX alone or in combination with NF or HC, 11 days post-chemotherapy (FIG. 8A)): increases | Mean fluorescent intensity of PD-L1 on CD45- cells (PD-L1; MTX alone or in combination with NF or HC, 11 days post-chemotherapy (FIG. 8B)): increases | Percentage of CD45+ PD-L1+ cells (PD-L1; MTX alone or in combination with NF or HC, 11 days post-chemotherapy (FIG. 8C)): increases | Mean fluorescent intensity (D) of PD-L1 on CD45- cells (PD-L1; MTX alone or in combination with NF or HC, 11 days post-chemotherapy (FIG. 8D)): increases
